From patent US8367721B2, “Methods of treating an overweight or obese subject” (Zafgen, Inc., priority 2008, dated 2013)

Assays:
[1] = test system: diet-induced obese C57BL/6NTac mice; assay: 7 day oral weight loss study in diet-induced obese mice (Example 5); assay type: in vivo; conditions: oral 1.0 mg/kg once a day for 7 days
Protocol: A weight loss study was conducted in obese mice. The mice in this study were not genetically obese, but prior to and during the study, obesity was induced by a high-fat diet. Twelve week-old C57BL/6NTac mice, maintained on a 60% fat diet prior to and during the study, were separated into seven groups, eight animals per group. Average body weight of the mice was approximately 47 g at the start of the study.
Each of six groups was orally administered 1.0 mg/kg of a compound ([…] compounds B. C, D, E, F and G as disclosed herein), in 10% gelucire in deoinised water. Each of these six groups was administered a different compound. One group was orally administered fumagillin at 1.0 mg/kg (group 201) in 10% gelucire in deoinised water, and one group was administered 10% gelucire in deoinised water (vehicle). Mice received administrations once a day for 7 days.
(Data analyzed by ANCOVA with body weight on Day 1 as covariate followed by multiple tests against vehicle group: *p<0.05; **p<0.01, ***p<0.001.)

[2] = test system: Thioredoxin-1 (TXN) in B16F10 cells; assay: N-terminal chymotryptic fragments of TXN by LC/MS in fumagillin-treated B16F10 cells; assay type: cell-based
Protocol: B16F10 cells were treated with increasing concentrations of fumagillin. N-terminal chymotryptic fragments of TXN were measured by liquid chromatography/mass spectrometry (LC/MS). […] The EC50 of fumagillin to increase Met-TXN acetylated Met-TXN levels is <10 nM.

[3] = test system: C57BL/6 mice conditioned on a high fat diet; assay: Oral gavage for 10 days in high fat diet mice; assay type: in vivo; conditions: oral gavage 0.3 or 3 mg/kg daily for 10 days
From the text: (§1) Oral administration of the MetAP2 inhibitor fumagillin causes an increase in circulating ketone bodies, as measured by concentration of beta hydroxybutyrate, which indicates an increase in the breakdown of stored fat.

[4] = test system: C57BL/6 mice conditioned on a high fat diet; assay: Diet admixture for 250 days in high fat diet mice; assay type: in vivo
Protocol: as §1
In addition to showing an increase in beta hydroxybutyrate concentration, C57BL/6 mice conditioned on a high fat diet and treated with fumagillin (ZGN-201) as a diet admixture (1 mg/kg daily for 250 days) also experienced a reduction in body fat by approximately 40 percent (FIG. 6). Once attaining the maximum weight reduction, mice treated daily with 1 mg/kg fumagillin maintained a weight that was 25% less than that of age-matched mice maintained on normal mouse chow diet (lean mice, FIG. 6) for the duration of the experiment.
Adipose tissue in mice fed a high-fat diet show distinctive crown-like structures not seen in lean mice. These crown-like structures were also absent from the adipose tissue of fumagillin-treated mice.

[5] = test system: TXN in Cos-1 and 293T cells; assay: FLAG-tagged TXN expression (gel) in transfected Cos-1 and 293T cells; assay type: cell-based
Protocol: EC50 of fumagillin to increase TXN levels is <10 nM.

[6] = test system: High fat diet-fed C57BL/6 mice; assay: 14 day body weight and food intake study in high fat diet-fed mice; assay type: in vivo
Protocol: High fat diet-fed C57BL/6 mice were treated with 1 mg/kg of the MetAP2 inhibitor fumagillin (ZGN-201, squares) or vehicle (diamonds) for 14 days (FIG. 10). Body weights (left panel) were determined daily, while food intake (right panel) was assessed every other day by measuring the food consumed by each cage of three mice over the two day period. Data shown in FIG. 10 are means±SEM, n=9 animals. […] First, during the initial two to three days of treatment, no overt changes in food intake or body weight are observed. During this time period key changes in MetAP2 substrates occur, including glyceraldehyde-3-phosphate dehydrogenase and thioredoxin (data not shown). Second, the animals enter a period of rapid weight loss that proceeds until essentially all excess fat deposits are consumed. During this second period, fat oxidation is enhanced and food intake is inhibited.
Weight loss following treatment with therapeutically relevant doses of MetAP2 inhibitors stops once animals attain a normal body composition. […] This third phase can be maintained indefinitely provided the drug is continued (see FIG. 10), or presumably can be maintained in practice through other complementary pharmacologic, dietary, or lifestyle interventions.

[7] = test system: C57BL/6 mice conditioned on a high-fat diet; assay: 28 day oral gavage, fat and lean tissue change in high fat diet mice; assay type: in vivo; conditions: oral gavage 0.1 or 0.3 mg/kg for 28 days
Protocol: C57BL/6 mice were conditioned on a low-fat diet (LF), a high fat diet (HF), or a high-fat diet and treated with fumagillin (ZGN-201) administered by oral gavage at doses of 0.1 or 0.3 mg/kg for 28 days. […] To determine whether the weight loss resulted from loss of fat or loss of lean tissue, the percentage change in fat tissue and lean tissue was determined for LF mice, HF mice, HF mice treated with 0.1 mg/kg fumagillin, and HF mice treated with 0.3 mg/kg fumagillin.
Upon histological examination, the studies of treated obese mice show no effect on growth of new blood vessels in growing fat depots and no effect on blood vessel size or density when compared to animals in which weight loss has been induced by simple energy (food) restriction.

[8] = diet admixture 1 mg/kg daily for 250 days

Question: Which “body weight change over the course of the 8 days” value (shortened to “body weight change”) [1] does the source give for `CO[C@@H]1[C@H](OC(=O)N[C@@H](C(N)=O)C(C)C)CC[C@]2(CO2)[C@H]1[C@@]1(C)O[C@@H]1CC=C(C)C` [B] here?
Answer: lost weight

Question: How did the “body weight change” value [1] turn out when `CO[C@@H]1[C@H](OC(=O)NCCC2CCCN2C)CC[C@]2(CO2)[C@H]1[C@@]1(C)O[C@@H]1CC=C(C)C` (stereo partly drawn) [C] was run?
Answer: lost weight

Question: Which “body weight change” value [1] does the source give for `CO[C@@H]1[C@H](OC(=O)N[C@@H](C(=O)NCCN2CCCC2)C(C)C)CC[C@]2(CO2)[C@H]1[C@@]1(C)O[C@@H]1CC=C(C)C` [E] here?
Answer: lost weight

Question: For `CO[C@@H]1[C@H](OC(=O)/C=C/C=C/C=C/C=C/C(=O)O)CC[C@]2(CO2)[C@H]1[C@@]1(C)O[C@@H]1CC=C(C)C` [fumagillin], which “accumulation of N-acetyl TXN(1-4)” value ([2]; LC/MS) is on record?
Answer: significant accumulation

Question: What about the “cellular level of TXN containing an intact N-terminal methionine [TXN(1-4)]” value ([2]; LC/MS) of the same compound?
Answer: significantly increased

Question: What about the EC50 ([2]; Mus musculus, B16-F10, read-out: EC50 to increase Met-TXN acetylated Met-TXN levels) of the same compound?
Answer: < 10 nM

Question: What about the beta hydroxybutyrate concentrations [3] of the same compound?
Answer: increase

Question: What about the “free fatty acid concentration” value [3] of the same compound?
Answer: without an increase

Question: And the “body weight change” value [1]?
Answer: lost the most weight

Question: And the “maintained weight less than that of age-matched lean mice on normal chow” value ([4]; 1 mg/kg daily, after maximum weight reduction)?
Answer: 25%

Question: What about the adipocyte size ([4]; 1 mg/kg, 250 days) of the same compound?
Answer: more similar to that of age-matched lean mice

Question: And the “crown-like structures in adipose tissue” value ([4]; 1 mg/kg, 250 days)?
Answer: absent

Question: What about the “fasted glucose and insulin levels, insulin-glucose product” value ([4]; 1 mg/kg, 250 days) of the same compound?
Answer: more similar to that of age-matched lean mice

Question: And the “retroperitoneal fat pad weight” value ([4]; 1 mg/kg, 250 days)?
Answer: more similar to that of age-matched lean mice

Question: What about the “size and appearance of epididymal fat, peri-renal fat and liver” value ([4]; 1 mg/kg, 250 days) of the same compound?
Answer: more similar to that of age-matched lean mice

Question: And the “hydroxybutyrate concentration at longer time points” value [4, 8]?
Answer: Increased hydroxybutyrate concentration persisted

Question: And the “reduction in body fat” value [4, 8]?
Answer: approximately 40%

Question: What about the “expression of TXN” value ([5]; Cos-1 and 293T cells transfected with FLAG-tagged TXN) of the same compound?
Answer: significantly increased

Question: And the EC50 ([5]; gel, FIG. 4, read-out: EC50 to increase TXN levels)?
Answer: < 10 nM

Question: And the “food intake during period of rapid weight loss” value ([6]; 1 mg/kg for 14 days, second phase)?
Answer: inhibited

Question: And the “food intake after weight loss nadir” value ([6]; 1 mg/kg, third phase)?
Answer: returns to normal levels

Question: What about the body weight [7] of the same compound?
Answer: reduction in body weight down to the level of low fat fed mice

Question: And the reduction in fat [7]?
Answer: 40-50%

Question: What about the “reduction in lean tissue” value [7] of the same compound?
Answer: 5-10%
